Source: article PMC6976303 (Biochemistry, 2019)

Target: T1, human ABHD14B (Homo sapiens, UniProt Q96IU4)
T1 sequence (Q96IU4 1-210): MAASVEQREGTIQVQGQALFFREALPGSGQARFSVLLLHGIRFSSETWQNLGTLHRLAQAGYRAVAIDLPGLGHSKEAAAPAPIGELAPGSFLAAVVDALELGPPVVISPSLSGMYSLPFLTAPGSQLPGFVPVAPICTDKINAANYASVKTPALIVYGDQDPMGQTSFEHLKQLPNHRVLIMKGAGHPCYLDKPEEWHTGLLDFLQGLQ
Experiment: thermal shift assay, Sypro-Orange
Type: binding
Settings: 10 mM ligand, 10 μM enzyme, 10 mM Tris pH 8

leftward (lower temperature) thermal shift	Compound
~ 2 °C	CC(=O)SCCNC(=O)CCNC(=O)[C@H](O)C(C)(C)COP(=O)(O)OP(=O)(O)OC[C@H]1O[C@@H](n2cnc3c(N)ncnc32)[C@H](O)[C@@H]1OP(=O)(O)O [acetyl-CoA]
~ 2 °C	CC(C)(COP(=O)(O)OP(=O)(O)OC[C@H]1O[C@@H](n2cnc3c(N)ncnc32)[C@H](O)[C@@H]1OP(=O)(O)O)[C@@H](O)C(=O)NCCC(=O)NCCS [CoA]
